Assay results published in ChEMBL document CHEMBL4020828, “Design and Syntheses of Highly Potent Teixobactin Analogues against Staphylococcus aureus, Methicillin-Resistant Staphylococcus aureus (MRSA), and Vancomycin-Resistant Enterococci (VRE) in Vitro and in Vivo” (J Med Chem, 2018).
Converted amounts (≈) assume the structure as drawn. Positions of bridges follow the written chain, without caps; N, C: chain ends. Non-standard residues stand in square brackets, D forms with d. Residues, ends and D or L forms follow the SMILES beside them. dNMeF = CN[C@H](Cc1ccccc1)C(=O)O

Experiments:
[1] = test system: Staphylococcus saprophyticus; experiment: Antibacterial activity against Staphylococcus saprophyticus ATCC 49907 after 24 hrs; assay type: functional; settings: ATCC 49907, 24 h
Enterococcus faecalis [2] = experiment: Antibacterial activity against vancomycin-resistant Enterococcus faecalis ATCC 29212 after 24 hrs; assay type: functional; settings: ATCC 29212, 24 h
Staphylococcus aureus [3] = experiment: Antibacterial activity against methicillin-resistant Staphylococcus aureus isolate 42412 after 24 hrs; assay type: functional; settings: isolate 42412, 24 h
[4] = test system: Bacillus subtilis (Bacillus subtilis); experiment: Antibacterial activity against Bacillus subtilis ATCC 6633 after 24 hrs; settings: ATCC 6633, 24 h
Staphylococcus aureus [5] = experiment: Antibacterial activity against Staphylococcus aureus 4299 after 24 hrs; assay type: functional; settings: Staphylococcus aureus, 4299, 24 h
Staphylococcus aureus [6] = experiment: Antibacterial activity against methicillin-resistant Staphylococcus aureus ATCC 700699 after 24 hrs; assay type: functional; settings: ATCC 700699, 24 h
[7] = test system: Staphylococcus epidermidis; experiment: Antibacterial activity against Staphylococcus epidermidis 12228 after 24 hrs; assay type: functional; settings: Staphylococcus epidermidis, 12228, 24 h
Bacillus cereus = experiment: Antibacterial activity against Bacillus cereus ATCC 11788 after 24 hrs; assay type: functional; settings: ATCC 11788, 24 h
Staphylococcus aureus [8] = experiment: Antibacterial activity against methicillin-resistant Staphylococcus aureus isolate 21455 after 24 hrs; assay type: functional; settings: isolate 21455, 24 h
Enterococcus faecalis [9] = experiment: Antibacterial activity against vancomycin-resistant Enterococcus faecalis ATCC 700802 after 24 hrs; assay type: functional; settings: ATCC 700802, 24 h
Staphylococcus aureus [10] = experiment: Antibacterial activity against methicillin-resistant Staphylococcus aureus isolate 1003 after 24 hrs; assay type: functional; settings: isolate 1003, 24 h
Enterococcus faecalis [11] = experiment: Antibacterial activity against vancomycin-resistant Enterococcus faecalis isolate 1002 after 24 hrs; assay type: functional; settings: isolate 1002, 24 h
[12] = test system: Staphylococcus saprophyticus; experiment: Antibacterial activity against Staphylococcus saprophyticus ATCC 49453 after 24 hrs; assay type: functional; settings: ATCC 49453, 24 h
Enterococcus faecalis [13] = experiment: Antibacterial activity against vancomycin-resistant Enterococcus faecalis isolate 1004 after 24 hrs; assay type: functional; settings: isolate 1004, 24 h
Enterococcus faecalis [14] = experiment: Antibacterial activity against vancomycin-resistant Enterococcus faecalis isolate 1001 after 24 hrs; assay type: functional; settings: isolate 1001, 24 h
Staphylococcus aureus [15] = experiment: Antibacterial activity against methicillin-resistant Staphylococcus aureus ATCC 33591 after 24 hrs; assay type: functional; settings: ATCC 33591, 24 h
[16] = test system: Staphylococcus saprophyticus; experiment: Antibacterial activity against Staphylococcus saprophyticus ATCC BAA 750 after 24 hrs; assay type: functional; settings: ATCC BAA 750, 24 h
[17] = test system: Staphylococcus saprophyticus; experiment: Antibacterial activity against Staphylococcus saprophyticus ATCC 15305 after 24 hrs; assay type: functional; settings: ATCC 15305, 24 h
Staphylococcus aureus [18] = experiment: Antibacterial activity against Staphylococcus aureus ATCC 29213 after 24 hrs; assay type: functional; settings: ATCC 29213, 24 h
Enterococcus faecalis [19] = experiment: Antibacterial activity against vancomycin-resistant Enterococcus faecalis isolate 1008 after 24 hrs; assay type: functional; settings: isolate 1008, 24 h

| SMILES | MIC [1] [µg/mL] | MIC (Enterococcus faecalis [2]) [µg/mL] | MIC (Staphylococcus aureus [3]) [µg/mL] | MIC [4] [µg/mL] | MIC (Staphylococcus aureus [5]) [µg/mL] | MIC (Staphylococcus aureus [6]) [µg/mL] | MIC [7] [µg/mL] | MIC (Bacillus cereus) [µg/mL] | MIC (Staphylococcus aureus [8]) [µg/mL] | MIC (Enterococcus faecalis [9]) [µg/mL] | MIC (Staphylococcus aureus [10]) [µg/mL] | MIC (Enterococcus faecalis [11]) [µg/mL] | MIC [12] [µg/mL] | MIC (Enterococcus faecalis [13]) [µg/mL] | MIC (Enterococcus faecalis [14]) [µg/mL] | MIC (Staphylococcus aureus [15]) [µg/mL] | MIC [16] [µg/mL] | MIC [17] [µg/mL] | MIC (Staphylococcus aureus [18]) [µg/mL] | MIC (Enterococcus faecalis [19]) [µg/mL] |
| --- | --- | --- | --- | --- | --- | --- | --- | --- | --- | --- | --- | --- | --- | --- | --- | --- | --- | --- | --- | --- |
| CC[C@@H](C)[C@@H](NC(=O)[C@@H](CCC(N)=O)NC(=O)[C@H](CO)NC(=O)[C@@H](NC(=O)[C@@H](Cc1ccccc1)NC)[C@@H](C)CC)C(=O)N[C@H](C(=O)N[C@@H](CO)C(=O)N[C@H]1C(=O)N[C@@H](CCCNC(=N)N)C(=O)N[C@@H](CC(C)C)C(=O)N[C@@H]([C@@H](C)CC)C(=O)O[C@H]1C)[C@@H](C)CC (H-[dNMeF]IS[dQ][dI]IS[dT]RLI; ester 8-C) | < 0.0625 | 1 (≈ 0.777 µM) | < 0.0625 | < 0.0625 | 0.25 (≈ 0.194 µM) | 0.5 (≈ 0.389 µM) | < 0.0625 | 0.25 (≈ 0.194 µM) | 0.25 (≈ 0.194 µM) | 0.5 (≈ 0.389 µM) | 0.25 (≈ 0.194 µM) | 1 (≈ 0.777 µM) | < 0.0625 | 0.25 (≈ 0.194 µM) | 0.5 (≈ 0.389 µM) | 0.125 (≈ 0.0972 µM) | < 0.0625 | < 0.0625 | 0.5 (≈ 0.389 µM) | 0.25 (≈ 0.194 µM) |
| CC[C@@H](C)[C@@H](NC(=O)[C@@H](CCCNC(=N)N)NC(=O)[C@H](CCCNC(=N)N)NC(=O)[C@@H](NC(=O)[C@@H](Cc1ccccc1)NC)[C@@H](C)CC)C(=O)N[C@H](C(=O)N[C@@H](CO)C(=O)N[C@H]1C(=O)N[C@@H](CCCNC(=N)N)C(=O)N[C@@H](CC(C)C)C(=O)N[C@@H]([C@@H](C)CC)C(=O)O[C@H]1C)[C@@H](C)CC (H-[dNMeF]IR[dR][dI]IS[dT]RLI; ester 8-C) | < 0.0625 | 4 (≈ 2.89 µM) | 2 (≈ 1.45 µM) | < 0.0625 | 1 (≈ 0.723 µM) | 2 (≈ 1.45 µM) | < 0.0625 | 1 (≈ 0.723 µM) | 2 (≈ 1.45 µM) | 4 (≈ 2.89 µM) | 2 (≈ 1.45 µM) | 8 (≈ 5.78 µM) | < 0.0625 | 4 (≈ 2.89 µM) | 2 (≈ 1.45 µM) | 1 (≈ 0.723 µM) | < 0.0625 | 0.25 (≈ 0.181 µM) | 1 (≈ 0.723 µM) | 8 (≈ 5.78 µM) |
| CC[C@@H](C)[C@@H](NC(=O)[C@@H](CCC(N)=O)NC(=O)[C@H](CO)NC(=O)[C@@H](NC(=O)[C@@H](Cc1ccccc1)NC)[C@@H](C)CC)C(=O)N[C@H](C(=O)N[C@@H](CO)C(=O)N[C@H]1C(=O)N[C@@H](CCCNC(=N)N)C(=O)N[C@@H]([C@@H](C)CC)C(=O)N[C@@H]([C@@H](C)CC)C(=O)O[C@H]1C)[C@@H](C)CC | < 0.0625 | 1 (≈ 0.777 µM) | 0.125 (≈ 0.0972 µM) | 0.125 (≈ 0.0972 µM) | 1 (≈ 0.777 µM) | 1 (≈ 0.777 µM) | < 0.0625 | 0.5 (≈ 0.389 µM) | 0.5 (≈ 0.389 µM) | 1 (≈ 0.777 µM) | 0.5 (≈ 0.389 µM) | 1 (≈ 0.777 µM) | < 0.0625 | 1 (≈ 0.777 µM) | 1 (≈ 0.777 µM) | 0.25 (≈ 0.194 µM) | < 0.0625 | < 0.0625 | 1 (≈ 0.777 µM) | 1 (≈ 0.777 µM) |
